Assay results as given in ChEMBL document CHEMBL4261636, “Design of Y2 Receptor Selective and Proteolytically Stable PYY3-36 Analogues” (J Med Chem, 2018).
Bridge positions count the residues as written; N and C are the ends. Square brackets hold non-standard residues; d marks the D form. Peptide text beside a SMILES is read from it. Ahx = NCCCCCC(=O)O

Columns and labels:
[1] = target: T1, Neuropeptide Y receptor type 1 (Homo sapiens, UniProt P25929); assay: Displacement of [125I]-PYY(1 to 36 residues) from human Y1R expressed in BHK-21 cell membranes after 2 hrs by scintillation proximity assay
T1 sequence (P25929 whole entry): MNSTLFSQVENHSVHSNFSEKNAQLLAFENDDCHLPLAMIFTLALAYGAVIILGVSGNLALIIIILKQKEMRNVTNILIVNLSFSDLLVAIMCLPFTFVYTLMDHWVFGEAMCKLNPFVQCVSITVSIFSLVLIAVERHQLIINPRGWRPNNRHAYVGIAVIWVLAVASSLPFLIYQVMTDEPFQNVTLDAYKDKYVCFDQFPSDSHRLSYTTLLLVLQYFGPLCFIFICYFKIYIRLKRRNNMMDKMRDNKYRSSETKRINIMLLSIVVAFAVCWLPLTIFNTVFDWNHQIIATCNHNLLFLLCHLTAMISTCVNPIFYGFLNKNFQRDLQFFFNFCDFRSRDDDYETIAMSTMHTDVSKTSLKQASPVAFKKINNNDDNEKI

[2] = target: T2, Neuropeptide Y receptor type 4 (Homo sapiens, UniProt P50391); assay: Displacement of [125I]-PP from human Y4R expressed in CHO-K1 cell membranes after 2 hrs by scintillation proximity assay
T2 sequence (P50391 whole entry): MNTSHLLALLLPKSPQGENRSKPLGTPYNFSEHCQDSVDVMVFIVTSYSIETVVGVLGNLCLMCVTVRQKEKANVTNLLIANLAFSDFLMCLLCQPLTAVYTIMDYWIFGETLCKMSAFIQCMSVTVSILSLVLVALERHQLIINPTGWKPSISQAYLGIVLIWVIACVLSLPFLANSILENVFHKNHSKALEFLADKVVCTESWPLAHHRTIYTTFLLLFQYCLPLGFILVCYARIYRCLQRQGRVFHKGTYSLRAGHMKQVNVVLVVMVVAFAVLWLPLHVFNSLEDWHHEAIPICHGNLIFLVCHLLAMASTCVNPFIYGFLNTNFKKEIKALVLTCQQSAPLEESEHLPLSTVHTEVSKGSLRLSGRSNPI

[3] = target: T3, Neuropeptide Y receptor type 2 (Homo sapiens, UniProt P49146); assay: Activation of human Y2R expressed in HEK293 cells assessed as inhibition of isoproterenol-induced increase in intracellular cAMP levels by calcium 5 dye-based FLIPR assay; type: functional, cell-based; conditions: read-out: EC50
T3 sequence (P49146 whole entry): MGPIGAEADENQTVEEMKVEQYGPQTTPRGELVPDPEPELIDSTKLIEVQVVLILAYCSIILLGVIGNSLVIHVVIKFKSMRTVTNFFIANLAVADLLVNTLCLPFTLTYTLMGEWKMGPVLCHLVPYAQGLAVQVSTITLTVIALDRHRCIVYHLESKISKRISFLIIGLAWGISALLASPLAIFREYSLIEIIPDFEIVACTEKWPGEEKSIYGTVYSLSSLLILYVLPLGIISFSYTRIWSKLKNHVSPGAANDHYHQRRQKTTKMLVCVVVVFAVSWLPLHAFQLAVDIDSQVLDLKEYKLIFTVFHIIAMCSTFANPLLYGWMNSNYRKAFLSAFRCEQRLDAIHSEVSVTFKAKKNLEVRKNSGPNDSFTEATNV

[4] = target: T3, Neuropeptide Y receptor type 2; assay: Displacement of [125I]-PYY(1 to 36 residues) from human Y2R expressed in CHO cell membranes after 2 hrs by scintillation proximity assay
Homo sapiens [5] = species: Homo sapiens; assay: Selectivity ratio of Ki for human Y4R expressed in CHO-K1 cell membranes to Ki for human Y2R expressed in CHO cell membranes; type: cell-based
[6] = target: T1, Neuropeptide Y receptor type 1; assay: Activation of human Y1R expressed in HEK293 cells assessed as inhibition of isoproterenol-induced increase in intracellular cAMP levels by calcium 5 dye-based FLIPR assay; type: functional, cell-based; conditions: for pEC50: hek293; for EC50: read-out: EC50
[7] = target: T4, Neuropeptide Y receptor type 5 (Homo sapiens, UniProt Q15761); assay: Displacement of [125I]-PYY(1 to 36 residues) from human Y5R expressed in HEK293 cell membranes after 2 hrs by scintillation proximity assay
T4 sequence (Q15761 whole entry): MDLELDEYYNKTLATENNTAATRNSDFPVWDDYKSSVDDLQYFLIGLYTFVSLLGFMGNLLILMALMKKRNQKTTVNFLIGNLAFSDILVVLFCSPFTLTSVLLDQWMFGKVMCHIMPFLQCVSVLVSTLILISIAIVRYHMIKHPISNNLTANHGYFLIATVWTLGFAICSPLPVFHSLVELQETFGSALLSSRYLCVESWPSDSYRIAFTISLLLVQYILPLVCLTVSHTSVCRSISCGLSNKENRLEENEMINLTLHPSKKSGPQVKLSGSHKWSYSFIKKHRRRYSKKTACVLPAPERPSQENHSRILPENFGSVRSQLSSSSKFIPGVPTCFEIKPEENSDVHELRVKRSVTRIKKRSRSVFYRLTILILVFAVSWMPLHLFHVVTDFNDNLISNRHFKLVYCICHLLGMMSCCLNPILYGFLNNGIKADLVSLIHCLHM

[8] = target: T2, Neuropeptide Y receptor type 4; assay: Activation of human Y4R expressed in HEK293 cells assessed as inhibition of isoproterenol-induced increase in intracellular cAMP levels by calcium 5 dye-based FLIPR assay; type: functional, cell-based; conditions: for pEC50: hek293
Homo sapiens [9] = species: Homo sapiens; assay: Selectivity ratio of Ki for human Y1R expressed in BHK-21 cell membranes to Ki for human Y2R expressed in CHO cell membranes; type: cell-based
[10] = target: T4, Neuropeptide Y receptor type 5; assay: Activation of human Y5R expressed in HEK293 cells assessed as inhibition of isoproterenol-induced increase in intracellular cAMP levels by calcium 5 dye-based FLIPR assay; type: functional, cell-based
Homo sapiens [11] = species: Homo sapiens; assay: Selectivity ratio of Ki for human Y5R expressed in HEK293 cell membranes to Ki for human Y2R expressed in CHO cell membranes; type: cell-based

SMILES | Ki [1] | Ki [2] | EC50 [3] | Ki [4] | Ratio Ki (Homo sapiens [5]) | pEC50 [6] | EC50 [6] | Ki [7] | EC50 [8] | pEC50 [8] | Ratio Ki (Homo sapiens [9]) | EC50 [10] | Ratio Ki (Homo sapiens [11]) | pKi ([1]; bhk-21)
CC[C@H](C)[C@@H]1NC(=O)[C@@H](NC(=O)[C@@H](N)Cc2ccc(O)cc2)CCC(=O)NCCCC[C@@H](C(=O)N[C@H](C(=O)N[C@H](C(=O)N[C@@H](CCCNC(=N)N)C(=O)N[C@@H](CCC(N)=O)C(=O)N[C@@H](CCCNC(=N)N)C(=O)N[C@@H](Cc2ccc(O)cc2)C(=O)O)[C@@H](C)O)C(C)C)NC(=O)[C@H](CC(N)=O)NC(=O)[C@H](CC(C)C)NC(=O)[C@H](Cc2ccc(O)cc2)NC(=O)[C@H](Cc2cnc[nH]2)NC(=O)[C@H](CCCNC(=N)N)NC(=O)CCCCCNC(=O)[C@H](CCCCN)NC1=O | 1300 nM | 50 nM | 2 nM | 1.3 nM | 39 | < 6 | > 1000 nM | 790 nM | > 1000 nM | < 6 | 1000 | 400 nM | 610 | –
CC[C@H](C)[C@@H]1NC(=O)[C@H](Cc2ccc(O)cc2)NC(=O)[C@H](Cc2cnc[nH]2)NC(=O)[C@H](CCCNC(=N)N)NC(=O)CCCCCNC(=O)[C@H](CCCCN)NC(=O)[C@H](CO)NC(=O)[C@@H](NC(=O)[C@@H](N)Cc2ccc(O)cc2)CCC(=O)NCCCC[C@@H](C(=O)N[C@H](C(=O)N[C@H](C(=O)N[C@@H](CCCNC(=N)N)C(=O)N[C@@H](CCC(N)=O)C(=O)N[C@@H](CCCNC(=N)N)C(=O)N[C@@H](Cc2ccc(O)cc2)C(=O)O)[C@@H](C)O)[C@@H](C)CC)NC(=O)[C@H](CC(N)=O)NC1=O (H-YESK[Ahx]RHYINKITRQRY-OH; lactam 2-11) | 500 nM | 25 nM | 7.6 nM | 2 nM | 13 | < 6 | > 1000 nM | 630 nM | > 1000 nM | < 6 | 250 | 500 nM | 320 | –
CC[C@H](C)[C@H](NC(=O)[C@H](Cc1ccc(O)cc1)NC(=O)[C@H](Cc1c[nH]cn1)NC(=O)[C@H](CCCN=C(N)N)NC(=O)CCCCCNC(=O)[C@H](CCCCN)NC(=O)[C@H](CO)NC(=O)[C@@H]1CCCN1C(=O)[C@@H](N)Cc1ccc(O)cc1)C(=O)N[C@@H](CC(N)=O)C(=O)N[C@@H](CC(C)C)C(=O)N[C@H](C(=O)N[C@H](C(=O)N[C@@H](CCCN=C(N)N)C(=O)N[C@@H](CCC(N)=O)C(=O)N[C@@H](CCCN=C(N)N)C(=O)N[C@@H](Cc1ccc(O)cc1)C(=O)O)[C@@H](C)O)[C@@H](C)CC (H-YPSK[Ahx]RHYINLITRQRY-OH) | – | – | – | – | 15 | – | – | – | – | – | 31 | – | 100 | –
CC[C@H](C)[C@H](NC(=O)[C@H](Cc1ccc(O)cc1)NC(=O)[C@H](Cc1cnc[nH]1)NC(=O)[C@H](CCCNC(=N)N)NC(=O)CCCCCNC(=O)[C@H](CCCCN)NC(=O)[C@H](CO)NC(=O)[C@@H]1CCCN1C(=O)[C@@H](N)Cc1ccc(O)cc1)C(=O)N[C@@H](CC(N)=O)C(=O)N[C@@H](CC(C)C)C(=O)N[C@H](C(=O)N[C@H](C(=O)N[C@@H](CCCNC(=N)N)C(=O)N[C@@H](CCC(N)=O)C(=O)N[C@@H](CCCNC(=N)N)C(=O)N[C@@H](Cc1ccc(O)cc1)C(=O)O)[C@@H](C)O)[C@@H](C)CC (H-YPSK[Ahx]RHYINLITRQRY-OH) | 400 nM | 200 nM | – | 13 nM | – | – | – | 1300 nM | – | – | – | – | – | –
CC[C@H](C)[C@H](NC(=O)[C@H](Cc1ccc(O)cc1)NC(=O)[C@H](CCCNC(=N)N)NC(=O)[C@H](CCCNC(=N)N)NC(=O)[C@H](CC(C)C)NC(=O)[C@H](CC(=O)O)NC(=O)[C@H](C)NC(=O)[C@H](C)NC(=O)[C@H](Cc1ccc(O)cc1)NC(=O)[C@H](CCC(N)=O)NC(=O)[C@H](C)NC(=O)[C@H](CCSC)NC(=O)[C@H](CCC(N)=O)NC(=O)[C@H](CCC(=O)O)NC(=O)[C@@H]1CCCN1C(=O)[C@@H](NC(=O)[C@H](C)NC(=O)[C@H](CC(N)=O)NC(=O)[C@H](CC(=O)O)NC(=O)CNC(=O)[C@@H]1CCCN1C(=O)[C@H](Cc1ccc(O)cc1)NC(=O)[C@@H](NC(=O)[C@@H]1CCCN1C(=O)[C@H](CCC(=O)O)NC(=O)[C@H](CC(C)C)NC(=O)[C@@H]1CCCN1C(=O)[C@H](C)N)C(C)C)[C@@H](C)O)C(=O)N[C@@H](CC(N)=O)C(=O)N[C@@H](CCSC)C(=O)N[C@@H](CC(C)C)C(=O)N[C@H](C(=O)N[C@@H](CCCNC(=N)N)C(=O)N[C@@H](CCC(N)=O)C(=O)N[C@@H](CCCNC(=N)N)C(=O)N[C@@H](Cc1ccc(O)cc1)C(=O)O)[C@@H](C)O | 40 nM | 0.1 nM | 16 nM | 6.3 nM | 0.02 | – | 16 nM | 1.3 nM | 0.2 nM | – | 6.3 | 6.3 nM | 0.21 | –
CC[C@H](C)[C@@H]1NC(=O)[C@H](CC(C)C)NC(=O)[C@H](CC(N)=O)NC(=O)[C@@H](NC(=O)[C@H](Cc2ccc(O)cc2)NC(=O)[C@H](Cc2cnc[nH]2)NC(=O)[C@H](CCCNC(=N)N)NC(C)=O)CCC(=O)NCCCC[C@@H](C(=O)N[C@@H](CCCNC(=N)N)C(=O)N[C@@H](CCC(N)=O)C(=O)N[C@@H](CCCNC(=N)N)C(=O)N[C@@H](Cc2ccc(O)cc2)C(=O)O)NC1=O (Ac-RHYENLIKRQRY-OH; lactam 4-8) | > 10000 nM | 1600 nM | – | 79 nM | 20 | – | – | 5000 nM | – | – | > 130 | – | 63 | < 5
